{
  "source": "patent US20080269188A1",
  "about": "“Oatp-C Gene C463a Polymorphism Underlies Variable Response to Statin Therapy” (INSERM, priority 2005, published 2008)",
  "key": {"[1]": {"details": "taken from Buse J., Clinical Diabetes 2003; cited from earlier work"}, "[2]": {"assay": "FAME study: plasma lipid response to Fluvastatin XL 80 mg in elderly patients with primary hypercholesterolemia, overall and by OATP-C C463A (Pro155Thr) genotype", "format": "in vivo, human", "method": "The characteristics of the study subjects have been previously reported.^26 Patients were enrolled in a large scale, randomized, double-blind, placebo-controlled multicenter study conducted in France, Italy, Spain, Belgium and Israel. Initially, the aim of this study was to investigate the efficacy and safety of extended-release (XL) Fluvastatin 80 mg once daily for up to one year in elderly patients with primary hypercholesterolemia. The study was approved by the relevant Ethic Committees, and informed consent Was given by all subjects before entering the study. Men or women, aged 70-85 years, with primary hypercholesterolemia (total cholesterol ≧251 mg/dL, triglycerides ≦407 mg/dL and LDL cholesterol ≧159 mg/dL after dietary intervention) were eligible for inclusion. […] OATP-C genotypes were determined in 420 subjects from the Fluvastatin arm of the study.\nFor each subject, plasma lipid response was calculated based on values obtained at baseline (week—2) and 2 months after treatment. Laboratory methods for lipid and lipoprotein measurements are described elsewhere 26; all parameters were measured at a central laboratory. […] Endpoint fluorescence (FAM™, VIC® or both), corresponding to cleavage of the allele-specific probe (allelic discrimination) was measured using an ABI PRISM 7000 Sequence Detection System (Applied Biosystems, Foster City, Calif.). […]"}, "[3]": {"assay": "ALERT trial (renal transplantation): lipid parameters after 6 weeks of fluvastatin by OATP-C Pro155Thr genotype", "format": "in vivo, human", "set-up": "TC_Visit 2 / TC_Diff / TG_Visit 2 / TG_Diff / HDL_Visit 2 / HDL_Diff / LDL_Visit 2 / LDL_Diff: unit not given here", "details": "LSMEAN; for HDL_% change / LDL_% change / TC_% change / TG_% change: 6 weeks; for HDL_Visit 2 / LDL_Visit 2 / TC_Visit 2 / TG_Visit 2: visit 2 (6 weeks of treatment), 40 mg daily; for HDL_Diff / LDL_Diff / TC_Diff / TG_Diff: week 6 minus visit zero", "method": "Given the success of statins, and fluvastatin in particular, in lowering lipid levels and reducing cardiovascular disease in the general population, the Assessment of LEscol (Fluvastatin) in Renal Transplantation (ALERT) clinical trial was performed (Holdaas et al., 2003). This multicenter, randomized, double-blind placebo-controlled study followed […] renal transplant patients for 5-6 years. Patients were assigned to a placebo or fluvastatin (40 mg daily for two years, and 80 mg daily for the remainder of the study) group, and monitored in laboratory blood analysis every six months and annual electrocardiography.\nThe Alert trial was conducted in centres in the Scandinavian countries, UK, Germany, Belgium, Switzerland and Canada, with only minimal number of non-Caucasian patients. The demographic and baseline LDL-C characteristics are similar between the fluvastatin treatment and the placebo groups, as illustrated in Table 5.\nBlood samples from each consenting patient were collected at the individual trial sites. The genomic DNA of each patient was extracted from the blood using the […]™ DNA Isolation Kit (D-50K) and then genotyping was performed. Ultimately, 1375 ALERT samples were genotyped: 693 from the Fluvastatin group (of 1050 total patients) and 682 from the placebo group (of 1052 total patients).\nThe primary efficacy variables tested were: LDL cholesterol at visit 2 (6 weeks of treatment) and Change in LDL cholesterol. The change in LDL cholesterol was calculated as the difference between the week 6 value and the visit zero value, for patients for whom both numbers were available. Additional efficacy variables tested in the full set of genotypes were: • HDL cholesterol at visit 2 (6 Weeks of treatment) • Change in HDL cholesterol • Total cholesterol at visit 2 (6 weeks of treatment) • Change in total cholesterol • Triglycerides at visit 2 (6 weeks of treatment) • Change in triglycerides.\nAssociation tests used categorical genotypes as the independent variable, with no assumption about dominance, and the various efficacy variables as dependent variables. Tests of continuous dependent variables used an ANCOVA analysis. No adjustment was made for multiple testing effect.\nThe relevant association test for each phenotype was first performed in the Fluvastatin treated patient set. SNP-phenotype associations with a threshold of p<0.05 were then tested separately in the placebo set to determine Fluvastatin-related pharmacogenetic effect."}},
  "note": "Marks after values point to notes of the source that are not given here.",
  "data": [
    {"smiles": "CC(C)c1c(C(=O)Nc2ccccc2)c(-c2ccccc2)c(-c2ccc(F)cc2)n1CC[C@@H](O)C[C@@H](O)CC(=O)O", "note": "[Atorvastatin, atorvastatin]", "values": [
      {"measurement": "Equipotent dose", "setting": "[1]", "result": 10, "unit": "mg"}
    ]},
    {"smiles": "CC(C)n1c(/C=C/C(O)CC(O)CC(=O)O)c(-c2ccc(F)cc2)c2ccccc21", "note": "(stereo not shown) [Fluvastatin, fluvastatin]", "values": [
      {"measurement": "LDL-C, % Change", "setting": "[2]; C463A genotype AA (Thr/Thr), n=15, baseline vs 2 months, mean ± SD", "result": "−41", "unit": "%"},
      {"measurement": "absolute gain in LDL-C reduction", "setting": "[2]; homozygous Thr/Thr vs homozygous wild-type Pro/Pro", "result": 10, "unit": "%"},
      {"measurement": "HDL_% change", "setting": "[3]; Pro155Thr genotype AA, n=16", "result": 18, "unit": "%"},
      {"measurement": "LDL_% change", "setting": "[3]; Pro155Thr genotype AA, n=16", "result": "−34", "unit": "%"},
      {"measurement": "TC_% change", "setting": "[3]; Pro155Thr genotype AA, n=16", "result": "−20", "unit": "%"},
      {"measurement": "TG_% change", "setting": "[3]; Pro155Thr genotype AA, n=16", "result": 8, "unit": "%"},
      {"measurement": "HDL_Visit 2", "setting": "[3]; Pro155Thr genotype AA, n=16", "result": 1.58},
      {"measurement": "LDL_Visit 2", "setting": "[3]; Pro155Thr genotype AA, n=16", "result": 2.68},
      {"measurement": "TC_Visit 2", "setting": "[3]; Pro155Thr genotype AA, n=16", "result": 5.17},
      {"measurement": "TG_Visit 2", "setting": "[3]; Pro155Thr genotype AA, n=16", "result": 2.12},
      {"measurement": "HDL_Diff", "setting": "[3]; Pro155Thr genotype AA, n=16", "result": 0.23},
      {"measurement": "LDL_Diff", "setting": "[3]; Pro155Thr genotype AA, n=16", "result": "−1.45"},
      {"measurement": "TC_Diff", "setting": "[3]; Pro155Thr genotype AA, n=16", "result": "−1.27"},
      {"measurement": "TG_Diff", "setting": "[3]; Pro155Thr genotype AA, n=16", "result": "−0.037"},
      {"measurement": "HDL_% change", "setting": "[3]; Pro155Thr genotype AC, n=167", "result": 8, "unit": "%"},
      {"measurement": "LDL_% change", "setting": "[3]; Pro155Thr genotype AC, n=167", "result": "−23", "unit": "%"},
      {"measurement": "TC_% change", "setting": "[3]; Pro155Thr genotype AC, n=167", "result": "−16", "unit": "%"},
      {"measurement": "TG_% change", "setting": "[3]; Pro155Thr genotype AC, n=167", "result": "−3", "unit": "%"},
      {"measurement": "HDL_Visit 2", "setting": "[3]; Pro155Thr genotype AC, n=167", "result": 1.4},
      {"measurement": "LDL_Visit 2", "setting": "[3]; Pro155Thr genotype AC, n=167", "result": 3.12},
      {"measurement": "TC_Visit 2", "setting": "[3]; Pro155Thr genotype AC, n=167", "result": 5.39},
      {"measurement": "TG_Visit 2", "setting": "[3]; Pro155Thr genotype AC, n=167", "result": 1.98},
      {"measurement": "HDL_Diff", "setting": "[3]; Pro155Thr genotype AC, n=167", "result": 0.05},
      {"measurement": "LDL_Diff", "setting": "[3]; Pro155Thr genotype AC, n=167", "result": "−1.02"},
      {"measurement": "TC_Diff", "setting": "[3]; Pro155Thr genotype AC, n=167", "result": "−1.05"},
      {"measurement": "TG_Diff", "setting": "[3]; Pro155Thr genotype AC, n=167", "result": "−0.181"},
      {"measurement": "HDL_% change", "setting": "[3]; Pro155Thr genotype CC, n=468", "result": 9, "unit": "%"},
      {"measurement": "LDL_% change", "setting": "[3]; Pro155Thr genotype CC, n=468", "result": "−28", "unit": "%"},
      {"measurement": "TC_% change", "setting": "[3]; Pro155Thr genotype CC, n=468", "result": "−18", "unit": "%"},
      {"measurement": "TG_% change", "setting": "[3]; Pro155Thr genotype CC, n=468", "result": "−5", "unit": "%"},
      {"measurement": "HDL_Visit 2", "setting": "[3]; Pro155Thr genotype CC, n=468", "result": 1.43},
      {"measurement": "LDL_Visit 2", "setting": "[3]; Pro155Thr genotype CC, n=468", "result": 2.91},
      {"measurement": "TC_Visit 2", "setting": "[3]; Pro155Thr genotype CC, n=468", "result": 5.21},
      {"measurement": "HDL_Diff", "setting": "[3]; Pro155Thr genotype CC, n=468", "result": 0.08},
      {"measurement": "LDL_Diff", "setting": "[3]; Pro155Thr genotype CC, n=468", "result": "−1.22"},
      {"measurement": "TC_Diff", "setting": "[3]; Pro155Thr genotype CC, n=468", "result": "−1.23"},
      {"measurement": "TG_Diff", "setting": "[3]; Pro155Thr genotype CC, n=468", "result": "−0.226"},
      {"measurement": "Equipotent dose", "setting": "[1]", "result": "80* mg"}
    ]},
    {"smiles": "CC[C@H](C)C(=O)O[C@H]1C[C@@H](C)C=C2C=C[C@H](C)[C@H](CC[C@@H]3C[C@@H](O)CC(=O)O3)[C@H]21", "note": "[Lovastatin, lovastatin]", "values": [
      {"measurement": "Equipotent dose", "setting": "[1]", "result": "60* mg"}
    ]}
  ]
}
